Patent US20180064662A1 (THE GENERAL HOSPITAL CORPORATION, priority 2015, published 2018)

How the values were obtained:
pancreatic cancer = conditions: newly diagnosed pancreatic cancer cases, diabetic patients; cited from earlier work
AK4.4 tumors = experiment: Orthotopic AK4.4 PDAC model in obese FVB mice, metformin in drinking water; type: in vivo, mouse
From the text: Wild-type (WT) C57BL/6 and FVB male mice were originally obtained from The Jackson Laboratory (The Jackson Laboratory, Bar Harbor, Me.) and bred and maintained in our defined-flora animal facility. Mice were maintained on a 12-h light-dark cycle in a temperature-controlled barrier facility, with ad libitum access to food and acidified water. To generate obese/diabetic mouse models, mice (6-weeks old) were given a 60% fat diet (D12492, Research Diets, New Brunswick, N.J.) for 10 weeks as previously described (49-51). For tumor experiments, the PAN02 and AK4.4 syngeneic PDAC models were used in C57BL/6 and FVB immunocompetent mice, respectively. PAN02 cells (SMAD4-m174) (52) were obtained from ATCC. AK4.4 cells (KrasG12D and p53^+/−) were isolated from mice generating spontaneous pancreatic tumors (Pt∫1-Cre/LSL-Kras^G12D/p53^Loxi−) (53). Orthotopic pancreatic tumors were generated by implanting a small piece (1 mm^3) of viable tumor tissue (from a source tumor in a separate donor animal) into the pancreas of a 6-8- week-old male lean or obese FVB (AK4.4 model) or C57BL/6 (PAN02 model) mouse. Both tumor models used were authenticated by IDEXX Laboratories. (PAN02: IDEXX RADIL Case # 22366-2013. AK4.4: IDEXX RADIL Case # 27818-2014).
At day 21, plasma and tumor samples were collected, and tumors were weighed and processed for further analysis.
This can be translated to the human equivalent dose by using the Reagan-Shaw method (54). According to the formula for the human equivalent dose [(mg/kg)=animal dose (mg/kg)×animal (km)/human (km). Km for a 60 kg human adults equals 37 and for a 20 g mouse equals 3], the human equivalent of murine dose of 300 mg/kg is 1459 mg for an average sized 60 kg adult human. Therefore, the selected dose in the present study is within the safe therapeutic range recorded in humans. […] This was compatible with the therapeutic periods reported in previous studies (55, 56). […] The amount added to each animal cage was calculated based on the average daily water intake for that cage during a period of 2 weeks prior to treatment initiation, and adjusted every three days based on water consumption and body weight of the animals. […] For in vitro experiments, a range of concentration from 0.05 to 25 mM depending on the cell line used, as discussed below.
Immediately following excision, tumor tissue was snap frozen and stored in liquid nitrogen. Total RNA was extracted and relative gene expression for macrophage M1/M2 markers was determined using a Sybr-green based standard protocol. In addition, total RNA was extracted and relative gene expression was determined using RT2 Profiler PCR Arrays system (Qiagen) on a Stratagene Mx3000P QPCR System using pre-made pathway-focused arrays (“Fibrosis”-Cat. Number: PAMM011Z; “Epithelial to Mesenchymal Transition (EMT)”-Cat. Number: PAMM090Z; “TGF-β signaling targets”-PAMM235Z; “Extracellular Matrix & Adhesion Molecules”-Cat. Number: PAMM013Z; and “Common cytokines ”-Cat. Number: PAMM021Z).
Each tumor sample was homogenized directly in lysis buffer for protein extraction. 20 ug of denatured protein per sample was loaded on 7%, 10% and 12% SDS-polyacrylamide gels. Antibodies used: phospho-p38 MAPKT^180/Y182 and p38; phospho-JNK (SAPK/JNK)^Thr183/Tyr185 and JNK; phospho-AKT^Ser473 and AKT, phospho-ERK(p44/42 MAPK)^T202/Y204 and ERK; phospho-NF-κB^Ser536 and NK-κB; p65^Ser536; phospho-Smad2^Ser465/467 and Smad2; phospho-IGF-I Receptor β^Tyr1135 and IGF; Phospho-IRS-1^Ser612 and IRS; IR; phpspho-stat3^Tyr705 and stat3; Phospho-AMPKα^Thr172 and Ampkα; phospho-Ampkβ^Ser108 and Ampk; phospho-ACC^Ser79 and ACC; Phospho-PDGF Receptor β^Tyr751 and PDGF Receptor β and snail, c-cadherin and vimentin, TGF-β, β-catenin, twist, LC3B. […]

MCA-IV tumors = experiment: MCA-IV breast cancer in lean and obese mice, anti-VEGF therapy; type: in vivo, mouse
[1] = obese FVB mice, metformin 300 mg/Kg
[2] = obese FVB mice, metformin 300 mg/Kg in drinking water
[3] = obese FVB mice, metformin 300 mg/Kg in drinking water, day 7 to 21

CN(C)C(=N)N=C(N)N [metformin, 3-(diaminomethylidene)-1,1-dimethylguanidine]
reduced risk of death (pancreatic cancer): 32% | expression of genes involved in ECM remodeling (including MMPs) and EMT (AK4.4 tumors; PCR array, pooled samples): reduced the expression | E-cadherin, protein expression (AK4.4 tumors; Western blot): increased | EMT marker vimentin, protein expression (AK4.4 tumors; Western blot): decreased | activation of metabolic pathways in tumors (AK4.4 tumors; Western blot): did not affect the activation of metabolic pathways | expression of the autophagy marker L3CB (AK4.4 tumors; Western blot): unchanged | reduction of metalloproteinase 9 (MMP9) protein (AK4.4 tumors; Western blot, metformin 300 mg/Kg): 70% | MMP activity in tumors (AK4.4 tumors; compared to control mice): decreased | TAM levels lower with metformin treatment (F4/80) (AK4.4 tumors; [1]): 60% | activation of STAT3 in whole tumors (AK4.4 tumors; [1]): decreased activation of STAT3 | expression of IL-1β and CXCL-1 in tumors (multiplex protein array) (AK4.4 tumors; [1]): reduced the expression of IL-1β and CXCL-1 | decrease of percentage of activated (αSMA) PSCs that co-express HA (AK4.4 tumors; [2]): 58% | decrease of percentage of activated (αSMA) PSCs that co-express collagen-I (AK4.4 tumors; [2]): 38% | expression of AT1 in tumors (Western blot) (AK4.4 tumors; [2]): reduce the expression of AT1 | reduced expression of HA (AK4.4 tumors; [3]): 64% | reduced expression of collagen-I (AK4.4 tumors; [3]): 35% | body weight (AK4.4 tumors; tumor-bearing mice): no change in body weight | FGF-2 gene and protein expression, downstream signaling (MCA-IV tumors; obese animals treated with anti-VEGF): decreases | vessel density (MCA-IV tumors; obese animals treated with anti-VEGF, metformin): decreases | tumor growth response to anti-VEGF (MCA-IV tumors; obese setting, metformin): improved tumor growth response to anti-VEGF
